From US20250214990A1, “DIACYLGLYCEROL KINASE (DGK) ALPHA INHIBITORS AND USES THEREOF” (Insilico Medicine IP Limited, priority 2022, published 2025)

Columns and labels:
DGKA = target: T1, DGKA (Homo sapiens, UniProt P23743); experiment: DGKA Inhibition ADP-Glo Assay; format: biochemical; details: 40 μM ATP
T1 construct: purchased SignalChem D21-10BG
Method: The DGKA inhibition reactions were performed using ADP-Glo assay. The reactions were carried out in 50 mM HEPES, 100 mM NaCl, 10 mM MgCl2, 1 mM CaCl2, 0.005% TritonX-100 and 1 mM DTT as working solution (pH=7.5). 30 nL DMSO solution of each test compound (Top concentration […] with 10 point, 4-fold dilution series for each compound) were transferred to 384 well plate by Echo and 5 μL DGKA (SignalChem, D21-10BG) enzyme working solution at 2× final reaction concentration was added to each well. After incubated at 25° C. for 15 minutes, 5 μL substrate working solution contain 40 μM ATP (Promega, V915B) and 200 µM DLG (SignalChem, D430-59) were added to initiate reaction. After enzymatic reaction at 25° C. for 60 min, ADP Glo assay reagents (Promega, V9102) were added and luminescence was recorded using an EnVision following the instruction of manual. […] The IC50 value was calculated via a regression analysis of the inhibition rate.

Human Pan T cells = experiment: IL-2 Release Detection Assay; format: cell-based; details: T-cell; for EC50: IL-2 in supernatant by ELISA, anti-CD3 pre-coated plate, 24 hours; for maximal fold induction: Top activation/DMSO control; for activity at 0.1 µM: curve value at 100 nM/DMSO control*100%, read-out: Activation % at 100 nM
Method: Isolate Human Pan T cells from PBMC according to T cell isolation kit (Stemcell, 17951). The suspend T cell in RPMI 1640 medium containing 10% FBS, 1% PS and 55 µM β-Mer at a density of 3*10^6 cells/well/3 ml are seeded into 6 well plate, recovered overnight at 37° C.&[…]. Harvest overnight recovered T cells are suspended in fresh RPMI1640 medium containing 10% FBS, 1% PS and 55 μM f-Mer, seeded 1*10^5/well/200 μl cells into the anti-CD3 pre-coated 96 well plate. Add dilutions of compounds into the cells and incubate at 37° C.&5% CO2 for 24 hours. IL-2 in cell supernatant was detected by ELISA Kit (R&D, DY202). Fit the compound EC50 in non-linear regression equation: Y=Bottom+(Top−Bottom)/(1+10^((Log EC50−X)*HillSlope)), X=compound concentration, Y=Activation %. Top and Bottom: Plateaus in same units as Y. Log EC50: same log units as X. Activation fold: Top activation/DMSO control. Activation % at 100 nM: Activation of non-linear regression equation curve at the concentration of 100 nM/DMSO control*100%.

T1 sequence (P23743 whole entry): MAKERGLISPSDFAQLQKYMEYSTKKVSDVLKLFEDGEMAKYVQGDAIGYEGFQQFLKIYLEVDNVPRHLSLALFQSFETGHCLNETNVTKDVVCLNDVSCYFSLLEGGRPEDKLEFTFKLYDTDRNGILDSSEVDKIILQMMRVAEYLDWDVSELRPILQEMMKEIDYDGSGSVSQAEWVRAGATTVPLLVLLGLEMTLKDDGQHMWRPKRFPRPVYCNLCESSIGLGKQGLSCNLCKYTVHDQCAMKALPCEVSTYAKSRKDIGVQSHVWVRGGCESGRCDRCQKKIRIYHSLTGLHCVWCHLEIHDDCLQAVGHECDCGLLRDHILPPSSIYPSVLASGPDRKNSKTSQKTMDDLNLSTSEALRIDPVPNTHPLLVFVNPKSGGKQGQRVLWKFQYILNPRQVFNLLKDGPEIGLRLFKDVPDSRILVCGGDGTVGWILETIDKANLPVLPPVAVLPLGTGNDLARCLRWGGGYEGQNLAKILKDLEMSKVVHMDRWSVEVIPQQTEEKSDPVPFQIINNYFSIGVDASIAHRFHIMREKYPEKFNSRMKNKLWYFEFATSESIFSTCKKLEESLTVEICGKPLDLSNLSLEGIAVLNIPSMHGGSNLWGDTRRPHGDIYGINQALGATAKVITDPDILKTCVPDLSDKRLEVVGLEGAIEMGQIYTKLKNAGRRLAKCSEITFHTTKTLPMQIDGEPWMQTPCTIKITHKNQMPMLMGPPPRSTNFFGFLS

Row | IC50 (DGKA) [µM] | EC50 (Human Pan T cells) [µM] | SMILES | maximal fold induction (Human Pan T cells) | activity at 0.1 µM (Human Pan T cells) [%]
1 | 0.001 to 0.01 | 2.61 | Cn1c(=O)c(C#N)c(N2CCOCc3c(C#CC4(C(F)(F)F)CC4)cccc32)c2cc(F)ccc21 [Example 10, 6-fluoro-1-methyl-2-oxo-4-(6-((1-(trifluoromethyl)cyclopropyl)ethynyl)-2,3-dihydrobenzo[e][1,4]oxazepin-1(5H)-yl)-1,2-dihydroquinoline-3-carbonitrile] | 5.8 | 95.5
2 | < 0.001 | 1.37 | Cn1c(=O)nc(N2CCOCc3c(C#CC4(C(F)(F)F)CC4)cccc32)c2cc(F)ccc21 [Example 9, 6-fluoro-1-methyl-4-(6-((1-(trifluoromethyl)cyclopropyl)ethynyl)-2,3-dihydrobenzo[e][1,4]oxazepin-1(5H)-yl)quinazolin-2(1H)-one] | 13.2 | 180
3 | < 0.001 | 0.702 | Cn1c(=O)nc(N2CCOCc3c(C#CC4(C(F)(F)F)CC4)cccc32)c2cc(Cl)c(OCCN)cc21 [Example 32, 7-(2-aminoethoxy)-6-chloro-1-methyl-4-(6-((1-(trifluoromethyl)cyclopropyl)ethynyl)-2,3-dihydrobenzo[e][1,4]oxazepin-1(5H)-yl)quinazolin-2(1H)-one] | 33.9 | 540
4 | 0.001 to 0.01 | 0.422 | Cn1c(=O)cc(N2CCOCc3c(C#CC4(C(F)(F)F)CC4)cccc32)c2cc(Cl)ccc21 [Example 3, 6-chloro-1-methyl-4-(6-((1-(trifluoromethyl)cyclopropyl)ethynyl)-2,3-dihydrobenzo[e][1,4]oxazepin-1(5H)-yl)quinolin-2(1H)-one] | 6.3 | 247
5 | < 0.001 | 1.01 | COCCOc1cc2c(cc1Cl)c(N1CCOCc3c(C#CC4(C(F)(F)F)CC4)cccc31)nc(=O)n2C [Example 17, 6-chloro-7-(2-methoxyethoxy)-1-methyl-4-(6-((1-(trifluoromethyl)cyclopropyl)ethynyl)-2,3-dihydrobenzo[e][1,4]oxazepin-1(5H)-yl)quinazolin-2(1H)-one] | 10.2 | 202
6 | < 0.001 | – | Cn1c(=O)nc(N2CCOCc3c(C#CC4(C(F)(F)F)CC4)cccc32)c2cc(Cl)c(OCCCO)cc21 [Example 27, 6-chloro-7-(3-hydroxypropoxy)-1-methyl-4-(6-((1-(trifluoromethyl)cyclopropyl)ethynyl)-2,3-dihydrobenzo[e][1,4]oxazepin-1(5H)-yl)quinazolin-2(1H)-one] | – | –
7 | 0.001 to 0.01 | 0.0628 | Cn1c(=O)nc(N2CCOCc3c(C#CC4(C(F)(F)F)CC4)cccc32)c2cc(Cl)c(OCCCN)cc21 [Example 20, 7-(3-aminopropoxy)-6-chloro-1-methyl-4-(6-((1-(trifluoromethyl)cyclopropyl)ethynyl)-2,3-dihydrobenzo[e][1,4]oxazepin-1(5H)-yl)quinazolin-2(1H)-one] | 1.7 | 173

The remaining lines, values behind:

Row | SMILES | IC50 (DGKA) [µM] | EC50 (Human Pan T cells) [µM] | maximal fold induction (Human Pan T cells) | activity at 0.1 µM (Human Pan T cells) [%]
8 | Cn1c(=O)cc(N2CCOCc3c(C#CC4(C(F)(F)F)CC4)cccc32)c2cc(C#N)ccc21 [Example 4, 1-methyl-2-oxo-4-(6-((1-(trifluoromethyl)cyclopropyl)ethynyl)-2,3-dihydrobenzo[e][1,4]oxazepin-1(5H)-yl)-1,2-dihydroquinoline-6-carbonitrile] | 0.001 to 0.01 | 0.479 | 10 | 313
9 | Cn1c(=O)nc(N2CCOCc3c(C#CC4(C(F)(F)F)CC4)cccc32)c2cc(Cl)c(OC3CCOC3)cc21 (centres unmarked) [Example 11, 6-chloro-1-methyl-7-((tetrahydrofuran-3-yl)oxy)-4-(6-((1-(trifluoromethyl)cyclopropyl)ethynyl)-2,3-dihydrobenzo[e][1,4]oxazepin-1(5H)-yl)quinazolin-2(1H)-one] | < 0.001 | 0.335 | 8.6 | 324
10 | Cn1c(=O)nc(N2CCOCc3c(C#CC4(C(F)(F)F)CC4)cccc32)c2cc(C#N)c(OCCO)cc21 [Example 14, 7-(2-hydroxyethoxy)-1-methyl-2-oxo-4-(6-((1-(trifluoromethyl)cyclopropyl)ethynyl)-2,3-dihydrobenzo[e][1,4]oxazepin-1(5H)-yl)-1,2-dihydroquinazoline-6-carbonitrile] | < 0.001 | 0.265 | 15.3 | 639
11 | Cn1c(=O)nc(N2CCOCc3c(C4CC4)cccc32)c2cc(Cl)c(OCCO)cc21 [Example 37, 6-chloro-4-(6-cyclopropyl-2,3-dihydrobenzo[e][1,4]oxazepin-1(5H)-yl)-7-(2-hydroxyethoxy)-1-methylquinazolin-2(1H)-one] | 0.001 to 0.01 | – | – | –
12 | Cn1c(=O)nc(N2CCOCc3c(C#CC4(C(F)(F)F)CC4)cccc32)c2cc(Cl)c(OC3CCOCC3)cc21 [Example 25, 6-chloro-1-methyl-7-((tetrahydro-2H-pyran-4-yl)oxy)-4-(6-((1-(trifluoromethyl)cyclopropyl)ethynyl)-2,3-dihydrobenzo[e][1,4]oxazepin-1(5H)-yl)quinazolin-2(1H)-one] | < 0.001 | 0.243 | 5.4 | 275
13 | Cn1c(=O)nc(N2CCOCc3c(C#CC4(C(F)(F)F)CC4)cncc32)c2cc(Cl)c(OCCO)cc21 [Example 31, 6-chloro-7-(2-hydroxyethoxy)-1-methyl-4-(6-((1-(trifluoromethyl)cyclopropyl)ethynyl)-2,3-dihydropyrido[3,4-e][1,4]oxazepin-1(5H)-yl)quinazolin-2(1H)-one] | < 0.001 | – | – | –
14 | Cn1c(=O)nc(N2CCOCc3c(C#CC4(C(F)(F)F)CC4)cccc32)c2cc(C#N)c(OCCCO)cc21 [Example 28, 7-(3-hydroxypropoxy)-1-methyl-2-oxo-4-(6-((1-(trifluoromethyl)cyclopropyl)ethynyl)-2,3-dihydrobenzo[e][1,4]oxazepin-1(5H)-yl)-1,2-dihydroquinazoline-6-carbonitrile] | < 0.001 | – | – | –
15 | Cn1c(=O)nc(N2CCOCc3ccccc32)c2cc(Cl)c(OCCO)cc21 [Example 36, 6-chloro-4-(2,3-dihydrobenzo[e][1,4]oxazepin-1(5H)-yl)-7-(2-hydroxyethoxy)-1-methylquinazolin-2(1H)-one] | 0.001 to 0.01 | – | – | –
16 | COCCOc1cc2c(cc1C#N)c(N1CCOCc3c(C#CC4(C(F)(F)F)CC4)cccc31)nc(=O)n2C [Example 18, 7-(2-methoxyethoxy)-1-methyl-2-oxo-4-(6-((1-(trifluoromethyl)cyclopropyl)ethynyl)-2,3-dihydrobenzo[e][1,4]oxazepin-1(5H)-yl)-1,2-dihydroquinazoline-6-carbonitrile] | < 0.001 | – | – | –
17 | Cn1c(=O)nc(N2CCOCc3c(C#CC4(C(F)(F)F)CC4)cccc32)c2cc(Cl)c(N3CCOCC3)cc21 [Example 19, 6-chloro-1-methyl-7-morpholino-4-(6-((1-(trifluoromethyl)cyclopropyl)ethynyl)-2,3-dihydrobenzo[e][1,4]oxazepin-1(5H)-yl)quinazolin-2(1H)-one] | 0.001 to 0.01 | 2.19 | 25.2 | 234
